According to US20050197364A1, “Amide compounds as ion channel ligands and uses thereof” (priority 2003, published 2005):

Columns and labels:
CYP2C19 = CYP2C19 (Homo sapiens, UniProt P33261); assay: Cytochrome p450 inhibition assessment, CYP2C19; assay type: in vitro ADME; settings: estimated
Experimental: (§1) The ability of test compounds to inhibit five major human cytochrome p450 isozymes was evaluated. Cytochrome p450 inhibition assays were performed on 96-well microtiter assay plates according to the protocols described in Gentest P450 inhibition instruction manuals. The assays were performed in duplicate at 8 concentrations with the upper concentration of 100 μM followed by a 1:3 serial dilution. Reactions were initiated by the addition of 100 μL of enzyme/substrate mix to 100 μL of cofactor/serial dilution mix, and terminated by addition of 75 μL of a 4:1 acentonitrile: 0.5 M Tris base solution or by 2N NaOH for CYP3A4/DBF. Fluorescence was measured using a fluorescence plate reader (FLUOstar model 403, BMG Lab Technologies, Durham, N.C.). For reactions with inhibition greater than 50%, IC50 values were determined by fitting the data to the Hill equation using software GraphPad Prism (Version 4.02, GraphPad Software, San Diego, Calif.).

CYP2D6 = CYP2D6 (Homo sapiens, UniProt P10635); assay: Cytochrome p450 inhibition assessment, CYP2D6; assay type: in vitro ADME; settings: concentration range tested, upper 100 μM
CYP2D6, sequence (P10635 whole entry): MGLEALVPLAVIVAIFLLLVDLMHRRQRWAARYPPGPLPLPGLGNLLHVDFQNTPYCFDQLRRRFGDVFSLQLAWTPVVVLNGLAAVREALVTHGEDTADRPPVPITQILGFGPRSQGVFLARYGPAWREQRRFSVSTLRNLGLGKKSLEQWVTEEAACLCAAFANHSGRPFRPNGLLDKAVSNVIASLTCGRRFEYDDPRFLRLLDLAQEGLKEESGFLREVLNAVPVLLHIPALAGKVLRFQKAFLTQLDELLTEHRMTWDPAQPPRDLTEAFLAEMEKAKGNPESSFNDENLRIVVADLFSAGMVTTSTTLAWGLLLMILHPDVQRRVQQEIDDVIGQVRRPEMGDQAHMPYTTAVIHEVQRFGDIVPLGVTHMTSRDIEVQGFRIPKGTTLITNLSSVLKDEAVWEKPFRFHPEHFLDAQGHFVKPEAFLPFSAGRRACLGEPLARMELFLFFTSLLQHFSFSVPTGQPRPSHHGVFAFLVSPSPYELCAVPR
Experimental: as §1

[1] = Aqueous equilibrium solubility; assay type: physicochemical; settings: room temperature
Experimental: Equilibrium solubility was measured in a pH 2.0 isotonic solution of NaCl/HCl and a pH 7.4 aqueous buffer. The pH 2.0 solution was prepared by adjusting the saline solution to a pH of 2.0 using HCl. The pH 7.4 buffer was prepared by adjusting the pH of a 0.07 M solution of NaH2PO4 to pH 7.4 with 10 N NaOH. […] At least 1 mg of powder was combined with 1 ml of buffer to make ≧1 mg/ml mixture. This sample was shaken for ≧2 hours and left to stand overnight at room temperature. The samples were then filtered through a 0.45-μm Nylon syringe filter that was first saturated with the sample. The filtrate was sampled twice, consecutively. All samples were assayed by LC/MS using electrospray ionization. The typical range of the assay is greater than 1 mg/mL to less than 0.0002 mg/mL, depending on analytical sensitivity.

[2] = Plasma protein binding by equilibrium dialysis, human plasma; assay type: in vitro ADME; settings: human plasma in sodium citrate, pH 7.4, 37° C., read-out: human plasma protein binding (% Bound)
Experimental: Membranes from Harvard/Amika with a molecular weight cutoff of 5,000 were rinsed with dH2O then placed in pH 7.4 PBS supplied by Gibco. The membranes were allowed to soak for 1 hour. A stock of the test article was pooled with Warfarin, Atropine at 2 mM in DMSO. The test article was then dosed into human plasma in sodium citrate, Rat Plasma, and Mouse Plasma to a final 10 μM concentration (0.5% DMSO v/v). The pre-soaked membranes were then placed into dialysis chambers. 500 μL of PBS was added to one side of the chamber, and 500 μL of the Matrix containing the test article was added to the other side of the chamber.
The chambers were then placed into an enclosed, heated rocker, which was pre-warmed to 37° C. and allowed to reach equilibrium for at least 22 hours. After 22 hours both sides were sampled. 100 μL of the donor side was added to 500 μL of PBS. 100 μL of the PBS side was added to 20 μL of fresh matrix. Samples then were crashed with 1:1 Acetonitrile and centrifuged at 10,000 RPM for 10 minutes. […]
Standards were prepared in a 1:5 plasma:PBS mixture at 5, 1.5, 0.5, 0.15, 0.05, 0.015 and 0.005 μM concentrations. […] Protein binding values were calculated as follows: % Bound=[(Concentration in Donor−Concentration in Receiver)/(Concentration in Donor)]×100. % Recovery=[(Concentration in donor+Concentration in Receiver)]/(Concentration in Normal Initial)]×100

CYP3A4 = CYP3A4 (Homo sapiens, UniProt P08684); assay: Cytochrome p450 inhibition assessment, CYP3A4; assay type: in vitro ADME; settings: concentration range tested, upper 100 μM
CYP3A4, sequence (P08684 whole entry): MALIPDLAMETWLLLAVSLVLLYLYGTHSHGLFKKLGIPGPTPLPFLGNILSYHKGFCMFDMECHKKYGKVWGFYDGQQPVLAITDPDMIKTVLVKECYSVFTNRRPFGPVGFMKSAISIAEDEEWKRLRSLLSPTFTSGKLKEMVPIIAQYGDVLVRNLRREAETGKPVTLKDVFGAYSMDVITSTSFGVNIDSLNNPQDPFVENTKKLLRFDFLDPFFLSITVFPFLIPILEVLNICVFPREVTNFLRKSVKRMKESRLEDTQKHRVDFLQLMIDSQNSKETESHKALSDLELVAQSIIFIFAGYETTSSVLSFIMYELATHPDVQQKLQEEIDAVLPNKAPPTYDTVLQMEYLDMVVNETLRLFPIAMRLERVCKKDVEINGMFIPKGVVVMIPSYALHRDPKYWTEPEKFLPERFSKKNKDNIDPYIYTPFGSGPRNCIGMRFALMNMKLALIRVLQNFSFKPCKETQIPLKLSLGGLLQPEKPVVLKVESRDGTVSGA
Experimental: as §1

[3] = tested on: capsaicin induced plasma extravasation; assay: Plasma extravasation study (capsaicin applied to ear, Evans Blue); assay type: in vivo, rat; settings: rats, dose of 30 mg/kg, dosed two hours before Evans Blue; FIG. 2
Experimental: The density of TRPV1 expression is enhanced during an inflammatory condition. Therefore TRPV1 antagonists have been investigated in three different models of inflammatory pain, namely plasma extravasation, paw lick assay, and thermal hyperalgesia.
Sprague-Dawley male rats obtained from Charles River, San Diego, Calif. were dosed with compound 18. Two hours later, they were injected with Evan's Blue (10 ml/kg or 150 μl). Thirty minutes after I.V. injection, 10 μl of 25 mM capsaicin in 100% ethanol was applied to the left ear of the animal, followed by 10 μl vehicle (100% EtOH) to the right ear of the […]. Fifteen minutes later, the animal was sacrificed using CO2. Each ear was removed, placed into labeled tubes and weighed. The dye was then extracted from the ears by drying the ears at 55-60° overnight. The following day, 250 μl formamide was added and left at 55-60° overnight.
An Evans blue standard curve was first generated ([…]). Samples (with ears) were spun for at least 1 minute before addition of 100 μl of each sample to appropriate wells. Samples were analyzed in a plate holder by SOFTmax PRO. Standards were graphed to generate a standard curve and then used to extrapolate Evans Blue concentrations of experimental samples.

[4] = Pharmacokinetic profile after intravenous and oral administration; assay type: in vivo; settings: male, Sprague-Dawley, rat, plasma, rats, IV 1 mg/kg and oral 5 mg/kg
Experimental: The pharmacokinetic profile of Compound 18 was evaluated following intravenous and oral administration in rats. Sprague-Dawley male rats obtained from Charles River, San Diego, Calif. were acclimated for 24 hours. Compound 18 was formulated at a concentration of 0.5 mg/mL for IV administration at a 1 mg/kg dose and 1 mg/mL for oral administration at a 5 mg/kg dose. All animals were weighed before dosing. The body weight was used to calculate the actual dose for each animal. The intravenous dose was administered through the jugular vein catheter in less than 1 minute. The oral dose volume was 1.5 ml for all PO rats administered through oral […]. […] For PO dosing, blood samples were collected using a pre-heparinized syringe via the carotid artery catheter before dosing and at t=5, 15, 30, 60, 120, 180, 360, and 480 minutes post dosing. 250 uL of blood was obtained at each time point from each animal. Equal volumes of 0.9% normal saline were replaced to prevent dehydration. The whole blood samples were maintained on ice until centrifugation. Blood samples were centrifuged at 14,000 rpm for 10 minutes at 4° C., and the upper plasma layer was transferred into a clean vial and store at −80° C. The plasma was analyzed.

CYP2C19, sequence (P33261 whole entry): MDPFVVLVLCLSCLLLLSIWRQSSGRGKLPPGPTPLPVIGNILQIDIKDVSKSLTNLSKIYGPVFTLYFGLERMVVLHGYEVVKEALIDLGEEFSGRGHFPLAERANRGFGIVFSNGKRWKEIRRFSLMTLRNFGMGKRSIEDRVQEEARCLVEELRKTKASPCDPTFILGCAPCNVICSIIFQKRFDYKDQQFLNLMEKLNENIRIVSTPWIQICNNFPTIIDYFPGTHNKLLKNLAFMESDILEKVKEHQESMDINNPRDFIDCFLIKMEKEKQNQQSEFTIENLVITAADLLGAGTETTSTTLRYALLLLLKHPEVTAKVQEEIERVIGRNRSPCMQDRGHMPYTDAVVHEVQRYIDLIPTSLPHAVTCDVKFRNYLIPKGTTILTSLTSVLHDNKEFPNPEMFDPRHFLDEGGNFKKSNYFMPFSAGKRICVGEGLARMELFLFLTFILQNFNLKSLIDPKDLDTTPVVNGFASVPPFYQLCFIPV

IC50 (CYP2C19): 26.9 µM | inhibition of CYP2D6 activity (CYP2D6): did not significantly inhibit | solubility thermodynamic ([1]; pH 2.0 isotonic NaCl/HCl solution, simulated gastric fluid, thermodynamic from solid, pH 2.0 isotonic NaCl/HCl): < 0.2 µg/mL | equilibrium solubility ([1]; pH 7.4 aqueous buffer): low solubility | fraction unbound at 22 h, 10 µM [2]: < 0.002 | inhibition of CYP3A4 activity (CYP3A4): did not significantly inhibit | Cmax [4]: 1750 nM | Tmax [4]: 3 h | clearance ([4]; read-out: Clearance (Cl) (converted)): 8.83 mL/min/kg | bioavailability ([4]; read-out: Oral Bioavailability (%F)): 30.1% | Vd ([4]; read-out: Volume of distribution (Vd)): 2.82 L/kg | half-life ([4]; read-out: half life (t1/2) (converted)): 3.71 h
SMILES: O=C(Nc1ccc(C(F)(F)F)cc1)c1ccc(-c2ncccc2Cl)cc1 [Compound 18, 4-(3-Chloropyridin-2-yl)-N-(4-trifluoromethyl-phenyl)benzamide]
capsaicin induced plasma extravasation [3]: significantly blocks
